This assay concerns the target T1, CIII2CIV2 (Complex III2IV2, cytochrome bcc-aa3 supercomplex) (Mycolicibacterium smegmatis, UniProt A0R052+I7GD61).
T1 construct: gene MSMEG_4263; CIII2CIV2 in IMVs from strain QcrB-3×FLAG (3×FLAG tag at the C terminus of the QcrB subunit); with other subunits of the CIII2CIV2 supercomplex
Put plainly: succinate-driven acidification of inverted membrane vesicles (ACMA fluorescence); no inhibition of ATP-driven acidification. It counts as biochemical.

Where two headings read alike, the source gives them in different places.

A word on the IC50: it is the point on the concentration scale where inhibition reaches its midpoint. As for `CCc1nc2ccc(Cl)cn2c1C(=O)NCc1ccc(N2CCC(c3ccc(OC(F)(F)F)cc3)CC2)cc1` [Q203, telacebec], the IC50 was about 140 nM.

As for `Cc1c(OCC(F)(F)F)ccnc1CSc1nc2ccccc2[nH]1` [LPZS, lansoprazole sulfide], the IC50 (read-out: IC50) is about 860 nM.

For the origin of these results see paper PMC10770618, “A simple assay for inhibitors of mycobacterial oxidative phosphorylation” (The Journal of Biological Chemistry, 2023).
